Test [1] addresses Sodium-dependent serotonin transporter (Homo sapiens, UniProt P31645). The experiment in a line: Binding affinity to SERT (unknown origin).
The next test deals with Histamine H1 receptor (Homo sapiens, UniProt P35367). Nature of the test: Binding affinity to H1 receptor (unknown origin).
A further test addresses D(2) dopamine receptor (Homo sapiens, UniProt P14416). Nature of the test: Binding affinity to D2 receptor (unknown origin).
Test [2] addresses 5-hydroxytryptamine receptor 6 (Homo sapiens, UniProt P50406). Nature of the test: Binding affinity to 5HT6 receptor (unknown origin).
In test [3] the target is 5-hydroxytryptamine receptor 2A (Homo sapiens, UniProt P28223). The experiment in a line: Binding affinity to 5HT2A receptor (unknown origin).
Chain of 5-hydroxytryptamine receptor 2A (P28223 whole entry): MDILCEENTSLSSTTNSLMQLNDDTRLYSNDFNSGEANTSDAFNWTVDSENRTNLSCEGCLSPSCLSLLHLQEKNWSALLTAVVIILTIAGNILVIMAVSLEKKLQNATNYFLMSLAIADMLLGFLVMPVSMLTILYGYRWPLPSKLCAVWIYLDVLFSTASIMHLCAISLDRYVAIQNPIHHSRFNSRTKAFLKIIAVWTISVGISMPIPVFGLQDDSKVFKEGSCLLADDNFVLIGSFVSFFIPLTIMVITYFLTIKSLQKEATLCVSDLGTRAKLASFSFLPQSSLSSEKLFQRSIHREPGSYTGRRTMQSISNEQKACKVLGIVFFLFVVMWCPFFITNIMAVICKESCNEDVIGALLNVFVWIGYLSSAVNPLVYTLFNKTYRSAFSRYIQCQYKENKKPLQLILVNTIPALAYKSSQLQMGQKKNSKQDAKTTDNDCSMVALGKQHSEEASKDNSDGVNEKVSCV
For test [4], the target named is T1, 5-hydroxytryptamine receptor 1A (Homo sapiens, UniProt P08908).
T1 sequence (P08908 whole entry): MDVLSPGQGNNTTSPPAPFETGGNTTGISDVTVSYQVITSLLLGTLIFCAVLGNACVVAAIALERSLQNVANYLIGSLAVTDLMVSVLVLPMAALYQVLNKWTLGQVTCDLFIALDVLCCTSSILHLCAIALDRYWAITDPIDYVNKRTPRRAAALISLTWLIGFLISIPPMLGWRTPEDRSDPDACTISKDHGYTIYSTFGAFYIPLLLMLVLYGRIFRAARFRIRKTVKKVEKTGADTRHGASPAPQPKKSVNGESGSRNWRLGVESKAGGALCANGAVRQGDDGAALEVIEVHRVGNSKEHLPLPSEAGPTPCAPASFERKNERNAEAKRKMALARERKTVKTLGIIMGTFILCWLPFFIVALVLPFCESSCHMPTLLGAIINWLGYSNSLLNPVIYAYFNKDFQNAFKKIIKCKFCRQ
The experiment in a line: Binding affinity to 5HT1A receptor (unknown origin).

Test [5] deals with 5-hydroxytryptamine receptor 7 (Homo sapiens, UniProt P34969). The experiment in a line: Binding affinity to 5HT7 receptor (unknown origin).
Chain of 5-hydroxytryptamine receptor 7 (P34969 whole entry): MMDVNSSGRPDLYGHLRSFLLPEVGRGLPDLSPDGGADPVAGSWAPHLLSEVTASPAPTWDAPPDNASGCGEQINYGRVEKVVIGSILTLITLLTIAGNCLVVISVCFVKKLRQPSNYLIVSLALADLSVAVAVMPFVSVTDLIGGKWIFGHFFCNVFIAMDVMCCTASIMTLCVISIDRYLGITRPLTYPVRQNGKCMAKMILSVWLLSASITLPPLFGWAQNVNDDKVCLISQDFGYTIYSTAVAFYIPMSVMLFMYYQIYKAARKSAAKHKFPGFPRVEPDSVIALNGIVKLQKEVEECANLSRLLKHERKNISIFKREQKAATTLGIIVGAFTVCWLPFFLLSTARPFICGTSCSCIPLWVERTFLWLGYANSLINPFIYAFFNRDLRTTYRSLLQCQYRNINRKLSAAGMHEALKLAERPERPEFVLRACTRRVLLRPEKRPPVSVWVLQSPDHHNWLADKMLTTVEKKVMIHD

Chain of Sodium-dependent serotonin transporter (P31645 whole entry): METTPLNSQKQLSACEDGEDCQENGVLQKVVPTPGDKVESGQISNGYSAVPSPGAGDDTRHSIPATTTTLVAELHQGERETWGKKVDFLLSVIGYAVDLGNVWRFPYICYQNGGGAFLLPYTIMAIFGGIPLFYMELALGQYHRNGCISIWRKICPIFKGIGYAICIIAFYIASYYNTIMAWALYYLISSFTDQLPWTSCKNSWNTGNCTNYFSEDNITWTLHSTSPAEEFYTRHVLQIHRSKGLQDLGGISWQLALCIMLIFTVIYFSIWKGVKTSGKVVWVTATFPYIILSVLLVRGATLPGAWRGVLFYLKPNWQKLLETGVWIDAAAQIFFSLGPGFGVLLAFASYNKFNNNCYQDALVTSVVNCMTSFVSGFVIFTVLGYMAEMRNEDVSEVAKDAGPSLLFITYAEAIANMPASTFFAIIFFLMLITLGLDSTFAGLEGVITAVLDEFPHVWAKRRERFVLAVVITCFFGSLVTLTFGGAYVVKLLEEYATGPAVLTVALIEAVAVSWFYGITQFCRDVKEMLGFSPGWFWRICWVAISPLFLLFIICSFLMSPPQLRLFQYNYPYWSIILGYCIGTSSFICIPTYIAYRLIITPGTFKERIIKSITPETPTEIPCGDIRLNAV
Chain of 5-hydroxytryptamine receptor 6 (P50406 whole entry): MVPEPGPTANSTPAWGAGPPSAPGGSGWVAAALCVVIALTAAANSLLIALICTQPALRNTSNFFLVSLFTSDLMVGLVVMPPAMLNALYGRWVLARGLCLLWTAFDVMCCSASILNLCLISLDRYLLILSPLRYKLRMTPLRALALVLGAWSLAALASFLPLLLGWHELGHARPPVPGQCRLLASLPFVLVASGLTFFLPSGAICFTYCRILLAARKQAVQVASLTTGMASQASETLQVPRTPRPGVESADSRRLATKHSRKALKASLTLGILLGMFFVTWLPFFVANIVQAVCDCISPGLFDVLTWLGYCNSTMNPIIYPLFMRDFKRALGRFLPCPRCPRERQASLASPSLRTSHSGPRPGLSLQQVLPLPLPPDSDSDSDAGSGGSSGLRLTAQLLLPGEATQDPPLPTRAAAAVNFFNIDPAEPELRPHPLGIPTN
Chain of D(2) dopamine receptor (P14416 whole entry): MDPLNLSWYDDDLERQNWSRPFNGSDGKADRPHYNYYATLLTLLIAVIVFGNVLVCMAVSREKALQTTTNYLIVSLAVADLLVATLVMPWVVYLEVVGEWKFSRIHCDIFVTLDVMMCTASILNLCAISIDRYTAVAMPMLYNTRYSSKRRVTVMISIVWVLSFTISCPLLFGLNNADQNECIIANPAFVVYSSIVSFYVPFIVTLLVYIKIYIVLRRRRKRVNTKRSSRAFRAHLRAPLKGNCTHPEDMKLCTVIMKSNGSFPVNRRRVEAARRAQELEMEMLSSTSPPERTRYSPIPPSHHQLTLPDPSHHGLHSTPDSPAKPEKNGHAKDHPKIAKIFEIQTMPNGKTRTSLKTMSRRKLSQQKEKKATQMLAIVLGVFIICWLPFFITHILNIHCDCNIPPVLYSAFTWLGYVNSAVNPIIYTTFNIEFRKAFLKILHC
Chain of Histamine H1 receptor (P35367 whole entry): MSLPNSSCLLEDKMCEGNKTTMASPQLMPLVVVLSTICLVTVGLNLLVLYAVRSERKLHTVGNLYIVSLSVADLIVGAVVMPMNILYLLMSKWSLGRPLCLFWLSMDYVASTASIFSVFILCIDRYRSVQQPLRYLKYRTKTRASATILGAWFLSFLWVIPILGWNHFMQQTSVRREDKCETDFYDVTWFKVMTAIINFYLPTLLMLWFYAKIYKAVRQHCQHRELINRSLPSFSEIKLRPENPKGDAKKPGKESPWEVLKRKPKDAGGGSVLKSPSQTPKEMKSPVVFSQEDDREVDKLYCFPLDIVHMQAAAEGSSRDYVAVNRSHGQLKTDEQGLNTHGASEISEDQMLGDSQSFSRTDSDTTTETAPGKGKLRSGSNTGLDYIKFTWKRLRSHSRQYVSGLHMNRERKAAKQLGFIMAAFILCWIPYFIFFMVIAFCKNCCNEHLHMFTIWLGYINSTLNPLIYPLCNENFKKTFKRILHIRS

The term Ki denotes the equilibrium dissociation constant of an inhibitor or competing ligand from its target. `COc1cc2c(cc1OC)N(CCN(C)C)C(=O)c1ccccc1N(C)C2=O`: the Ki was greater than 100 µM in test [1] (read-out: Ki) and greater than 10000 nM on Histamine H1 receptor (read-out: Ki).
Turning to `CN(C)CCN1C(=O)c2ccccc2N(C)C(=O)c2ccccc21`, the Ki on D(2) dopamine receptor is 65.3 µM; in test [1], “Not Active”; in test [2], 40.4 µM; in test [3], greater than 100 µM; in test [4], greater than 100 µM; on Histamine H1 receptor (read-out: Ki), greater than 10000 nM. In test [5], this compound showed a Ki greater than 100 µM.
In the case of `CN(C)CCN1C(=O)c2ccccc2CCc2ccccc21`, the Ki came to 12.4 µM in test [1] (read-out: Ki) and 290 nM on Histamine H1 receptor (read-out: Ki).
As for `CN(C)CCN1C(=O)c2ccccc2/C=C\c2ccccc21`, the Ki on D(2) dopamine receptor worked out at 11.6 µM; in test [1] (read-out: Ki) it was 4.6 µM; in test [2], 20.1 µM; in test [3], 74.4 µM; in test [4] it was 77.2 µM; at Histamine H1 receptor (read-out: Ki), 120 nM. The Ki in test [5] is 85.2 µM.
Consider `CN(C)CCN1C(=O)c2ccccc2C(=O)N(Cc2ccccc2)c2ccccc21`, for which the Ki entry (in test [1]; at Histamine H1 receptor) was “Not Active” in each case.
On to `CN(C)CCN1C(=O)c2cc(Cl)ccc2N(C)C(=O)c2cc3ccccc3cc21`, for which the results for the Ki result (in test [1]; on Histamine H1 receptor (read-out: Ki)) were “Not Active” and greater than 5000 nM, respectively.
`CN(C)CCCN1C(=O)c2ccccc2/C=C\c2ccccc21`: the Ki worked out at 9 µM on D(2) dopamine receptor; 36.9 µM in test [1] (read-out: Ki); 23.4 µM in test [2]; 17.1 µM in test [3]; 41.6 µM in test [4]; 430 nM on Histamine H1 receptor (read-out: Ki). In addition, the Ki in test [5] was greater than 100 µM.
On to `CN(C)CCCN1C(=O)c2ccccc2CCc2ccccc21`, for which the Ki is greater than 100 µM in test [1] (read-out: Ki) and 810 nM at Histamine H1 receptor (read-out: Ki).
In the case of `CN(C)CCCN1C(=O)c2ccccc2C(=O)N(Cc2ccccc2)c2ccccc21`, the Ki in test [1] (read-out: Ki) was greater than 100 µM; on Histamine H1 receptor it was “Not Active”.
As to `COc1cc2c(cc1OC)N(CCCN(C)C)C(=O)c1ccccc1N(C)C2=O`, the Ki result (in test [1]; at Histamine H1 receptor) was “Not Active” throughout.
Take `O=C1c2ccccc2/C=C\c2ccccc2N1CCCN1CCOCC1`: the Ki on D(2) dopamine receptor is 19.1 µM; in test [1] (read-out: Ki), greater than 100 µM; in test [2], 75.3 µM; in test [3], greater than 100 µM; in test [4] it was 39.4 µM; at Histamine H1 receptor it was “Not Active”. In test [5], this compound displayed a Ki greater than 100 µM.
For `CN(C)CCCN1C(=O)c2cc(Cl)ccc2N(C)C(=O)c2cc3ccccc3cc21`, the Ki result (in test [1]; on Histamine H1 receptor) was “Not Active” in each case.
As to `CN1CCN(CCCN2C(=O)c3ccccc3/C=C\c3ccccc32)CC1`, the Ki was 7.5 µM at D(2) dopamine receptor; “Not Active” in test [1]; 21.1 µM in test [2]; 48.3 µM in test [3]; 87.7 µM in test [4]; greater than 5000 nM at Histamine H1 receptor (read-out: Ki). The Ki in test [5] was greater than 100 µM.
On to `CN(C)CCCN1C(=O)c2ccccc2N(C)C(=O)c2ccccc21`, for which the Ki result in test [1] was “Not Active”; on Histamine H1 receptor (read-out: Ki), greater than 10000 nM.
As for `CN(C)CCN1C(=O)c2ccccc2N(C)c2ccccc21` [DIBENZEPIN], the Ki at D(2) dopamine receptor was 30.2 µM; in test [1] (read-out: Ki), 10.9 µM; in test [2], 3.3 µM; in test [3], 7.2 µM; in test [4], 2.5 µM; at Histamine H1 receptor (read-out: Ki) it was 20 nM. The same compound came in with a Ki in test [5] of 12.3 µM.

Source of the values: ChEMBL document CHEMBL4665756, “Synthesis, crystal structure and biological activity of novel analogues of tricyclic drugs” (Bioorg Med Chem Lett, 2020).
